Assay results published in ChEMBL document CHEMBL3351373, “Five-membered heteroaromatic ring fused-pyrimidine derivatives: design, synthesis, and hedgehog signaling pathway inhibition study” (Bioorg Med Chem Lett, 2014).

Assay: Inhibition of hedgehog receptor signaling pathway in mouse NIH3T3 cells transfected with Gli-reporter gene by luciferase reporter gene assay
Type: cell-based

Compound	IC50
FC(F)(F)Oc1ccc(-c2nc(Nc3ccc4[nH]ncc4c3)nc3[nH]cnc23)cc1	399 nM
O=C1Cc2cc(Nc3nc(-c4ccc(OC(F)(F)F)cc4)c4nc[nH]c4n3)ccc2N1	> 1000 nM
Cc1cccc(C)c1NC(=O)c1ccc(Nc2nc(-c3ccc(OC(F)(F)F)cc3)c3nc[nH]c3n2)cc1	512 nM
Cc1ccc(CN2CCOCC2)cc1NC(=O)c1ccc(Nc2nc(-c3ccc(OC(F)(F)F)cc3)c3nc[nH]c3n2)cc1	0.69 nM
Cc1ccc(CN2CCN(C)CC2)cc1NC(=O)c1ccc(Nc2nc(-c3ccc(OC(F)(F)F)cc3)c3nc[nH]c3n2)cc1	0.9 nM
Cc1ccc(OCCN2CCOCC2)cc1NC(=O)c1ccc(Nc2nc(-c3ccc(OC(F)(F)F)cc3)c3nc[nH]c3n2)cc1	2.98 nM
Cc1cccc(C)c1NC(=O)c1ccc(Nc2nc(-c3ccc(OC(F)(F)F)cc3)c3ncn(C)c3n2)cc1	116 nM
Cc1ccc(CN2CCOCC2)cc1NC(=O)c1ccc(Nc2nc(-c3ccc(OC(F)(F)F)cc3)c3ncn(C)c3n2)cc1	0.35 nM
Cc1cccc(C)c1NC(=O)c1ccc(Nc2nc(-c3ccc(OC(F)(F)F)cc3)c3cc[nH]c3n2)cc1	6.85 nM
Cc1cccc(C)c1NC(=O)c1ccc(Nc2nc(-c3ccc(OC(F)(F)F)cc3)c3ccn(C)c3n2)cc1	2.58 nM
Cc1ccc(CN2CCOCC2)cc1NC(=O)c1ccc(Nc2nc(-c3ccc(OC(F)(F)F)cc3)c3cc[nH]c3n2)cc1	6.04 nM
Cc1cccc(C)c1NC(=O)c1ccc(Nc2nc(-c3ccc(OC(F)(F)F)cc3)c3c(ccn3C)n2)cc1	1.17 nM
Cc1ccc(CN2CCN(C)CC2)cc1NC(=O)c1ccc(Nc2nc(-c3ccc(OC(F)(F)F)cc3)c3c(ccn3C)n2)cc1	5.1 nM
Cc1cccc(C)c1NC(=O)c1ccc(Nc2nc(-c3ccc(OC(F)(F)F)cc3)c3[nH]ccc3n2)cc1	12.8 nM
Cc1ccc(CN2CCN(C)CC2)cc1NC(=O)c1ccc(Nc2nc(-c3ccc(OC(F)(F)F)cc3)c3[nH]ccc3n2)cc1	1.39 nM
Cc1ccc(CN2CCN(C)CC2)cc1NC(=O)c1ccc(Nc2nc(-c3ccc(OC(F)(F)F)cc3)c3sccc3n2)cc1	9.39 nM
Cc1ccc(CN2CCN(C)CC2)cc1NC(=O)c1ccc(Nc2nc(-c3ccc(OC(F)(F)F)cc3)c3ccsc3n2)cc1	3.36 nM
Cc1ccc(CN2CCOCC2)cc1NC(=O)c1ccc(Nc2nc(-c3ccc(OC(F)(F)F)cc3)c3ccsc3n2)cc1	1.75 nM
Cc1ccc(CN2CCOCC2)cc1NC(=O)c1ccc(Nc2nc(-c3ccc(OC(F)(F)F)cc3)c3occc3n2)cc1	1.13 nM
Cc1cccc(C)c1NC(=O)c1ccc(Nc2nc(-c3ccc(OC(F)(F)F)cc3)c3sccc3n2)cc1	3.61 nM
Cc1cccc(C)c1NC(=O)c1ccc(Nc2nc(-c3ccc(OC(F)(F)F)cc3)c3ccsc3n2)cc1	0.6 nM
Cc1cccc(C)c1NC(=O)c1ccc(Nc2nc(-c3ccc(OC(F)(F)F)cc3)c3occc3n2)cc1	1.78 nM
CS(=O)(=O)c1ccc(C(=O)Nc2ccc(Cl)c(-c3ccccn3)c2)c(Cl)c1 [VISMODEGIB]	7.17 nM
